Reference: ChEMBL document CHEMBL1201862, “PubChem BioAssay data set” (2004)
Blank lines part the entries; values can stand above or below the compound they belong to. The source made the active and inactive calls.

What was measured:
[1] = viability loss in THP-1 monocytes – THP-1 cells, cytotoxicity control for Vif-APOBEC3G degradation inhibitor project, dose response (AID 1117359); assay type: functional; settings: THP-1
Paired box protein Pax-8 = Paired box protein Pax-8 (Homo sapiens, UniProt Q06710); test: PAX8 transcriptional activity inhibition in RMG-I – RMG-I cells, luciferase, cherry-pick, dose response (AID 687027); assay type: functional, cell-based;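 note: luciferase reporter driven by Pax8 target thyroperoxidase promoter measured by SteadyGlo luminescence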
Paired box protein Pax-8, sequence (Q06710 whole entry): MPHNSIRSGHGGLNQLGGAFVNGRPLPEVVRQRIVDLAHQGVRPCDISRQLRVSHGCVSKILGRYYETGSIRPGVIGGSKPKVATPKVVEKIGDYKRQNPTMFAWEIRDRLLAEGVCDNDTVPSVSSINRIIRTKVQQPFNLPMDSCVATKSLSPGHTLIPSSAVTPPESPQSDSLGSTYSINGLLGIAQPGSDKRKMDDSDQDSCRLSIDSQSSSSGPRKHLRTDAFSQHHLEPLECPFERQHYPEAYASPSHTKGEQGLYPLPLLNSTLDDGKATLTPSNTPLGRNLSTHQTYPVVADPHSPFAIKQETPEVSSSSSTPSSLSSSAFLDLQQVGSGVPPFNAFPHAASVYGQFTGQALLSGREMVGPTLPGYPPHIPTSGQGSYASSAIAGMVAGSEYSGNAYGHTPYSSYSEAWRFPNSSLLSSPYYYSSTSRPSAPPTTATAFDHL

[2] = toxicity toward immortalized ovarian surface epithelium – cell-based, plate reader, dry powder samples, cytotoxicity control for PAX8 inhibitor project, dose response (AID 743045); assay type: functional
[3] = OVCAR-3 cell viability loss – plate reader, dry powder samples, PAX8 inhibitor project, dose response (AID 743044); assay type: functional, cell-based
[4] = general cell-killing toxicity readout – plate reader, dry powder samples, cytotoxicity control for PAX8 inhibitor project, dose response (AID 743021); assay type: functional, cell-based
[5] = OVCAR8 cell viability loss – plate reader, dry powder samples, PAX8 project, dose response (AID 743197); assay type: functional, cell-based; settings: OVCAR-8
[6] = IGROV1 cell killing – plate reader, dry powder samples, PAX8 inhibitor project, dose response (AID 743043); assay type: functional, cell-based; settings: IGROV-1
[7] = A2780 cell killing – plate reader, dry powder samples, cytotoxicity control, dose response (AID 743046); assay type: functional, cell-based
[8] = Plasmodium falciparum Dd2 Sybr green parasite growth Measured in Cell-Based and Microorganism Combination System Using Plate Reader - 2153-01_Inhibitor_Dose_DryPowder_Activity_Set3.; assay type: functional
[9] = growth inhibition of PfATP4-mutant resistant parasites – NITD609-resistant line, SYBR Green, dry powder, dose response (AID 1159571); assay type: functional, cell-based;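 note: parasites synchronized at ring stage by sorbitol before testing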
[10] = Dd2 parasite growth inhibition in erythrocytes – SYBR Green, dry powder samples, set 9, dose response (AID 1159568); assay type: functional, cell-based
[11] = P. falciparum Dd2 growth inhibitors, dose response, SYBR Green, cherry-picked samples (AID 1159567); assay type: functional, cell-based
[12] = Dd2 malaria parasite growth inhibition potency – SYBR Green, dry powder samples, dose response (AID 1159566); assay type: functional, cell-based;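 note: potency for growth inhibition with lower SYBR green DNA signal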
[13] = growth inhibition of yeast DHODH-expressing 3D7 parasites – SYBR Green, dry powder samples, dose response (AID 1159570); assay type: functional, cell-based;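 note: parasite growth measured after 72 hours of compound exposure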
[14] = viability loss in MITF-independent A375 cells – cell-based, CellTiter-Glo luminescence, dry powder, set 2, counter-screen for MITF inhibitor project, dose response (AID 624489); assay type: functional; settings: A-375;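 note: actives are compounds lowering A375 viability meaning general cytotoxicity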
[15] = cytotoxicity in MITF-independent A375 cells – cell-based, CellTiter-Glo luminescence, dry powder, set 4, counter-screen for MITF inhibitor project, dose response (AID 624364); assay type: functional; settings: A-375;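 note: A375 melanoma cells are MITF independent so this is a counter screen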
[16] = biological target: Metabotropic glutamate receptor 5 (Rattus norvegicus, UniProt P31424); test: Identification of a glycine sulfonamide based non-MPEP site positive allosteric potentiator (PAM) of mGlu5 (calcium_assay).; assay type: functional
Metabotropic glutamate receptor 5, sequence (P31424 whole entry): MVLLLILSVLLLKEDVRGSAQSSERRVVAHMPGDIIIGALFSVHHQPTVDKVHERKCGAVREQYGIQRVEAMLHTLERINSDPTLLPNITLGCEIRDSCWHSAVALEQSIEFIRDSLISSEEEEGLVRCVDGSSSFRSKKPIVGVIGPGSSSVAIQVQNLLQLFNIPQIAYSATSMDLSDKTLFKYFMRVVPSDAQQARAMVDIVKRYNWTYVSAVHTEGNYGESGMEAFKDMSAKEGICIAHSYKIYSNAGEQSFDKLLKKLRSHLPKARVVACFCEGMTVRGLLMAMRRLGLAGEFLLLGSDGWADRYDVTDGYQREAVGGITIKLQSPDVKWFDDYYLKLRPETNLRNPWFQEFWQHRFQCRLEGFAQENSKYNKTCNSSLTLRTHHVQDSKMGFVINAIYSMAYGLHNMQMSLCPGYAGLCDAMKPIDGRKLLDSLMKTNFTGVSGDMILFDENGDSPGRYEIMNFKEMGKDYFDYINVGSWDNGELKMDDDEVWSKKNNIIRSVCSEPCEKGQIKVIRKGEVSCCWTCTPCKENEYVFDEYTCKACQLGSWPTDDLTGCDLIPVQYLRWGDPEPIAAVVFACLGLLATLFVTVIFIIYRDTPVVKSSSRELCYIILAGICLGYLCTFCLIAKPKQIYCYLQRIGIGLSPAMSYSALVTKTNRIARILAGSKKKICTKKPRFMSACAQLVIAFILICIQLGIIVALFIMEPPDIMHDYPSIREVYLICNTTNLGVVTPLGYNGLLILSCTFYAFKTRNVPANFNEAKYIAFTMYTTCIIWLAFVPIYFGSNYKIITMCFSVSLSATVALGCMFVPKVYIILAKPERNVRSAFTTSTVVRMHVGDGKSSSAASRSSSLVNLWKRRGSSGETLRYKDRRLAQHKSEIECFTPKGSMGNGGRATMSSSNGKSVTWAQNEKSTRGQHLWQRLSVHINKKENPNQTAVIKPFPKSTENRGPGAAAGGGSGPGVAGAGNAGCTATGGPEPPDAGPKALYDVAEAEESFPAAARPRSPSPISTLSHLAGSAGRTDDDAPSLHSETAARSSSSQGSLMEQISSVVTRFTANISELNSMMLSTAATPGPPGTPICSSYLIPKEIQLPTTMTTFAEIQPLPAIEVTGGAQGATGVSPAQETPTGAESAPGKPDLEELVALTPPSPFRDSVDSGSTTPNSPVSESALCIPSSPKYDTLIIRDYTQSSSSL

[17] = biological target: Mitogen-activated protein kinase 10 (Homo sapiens, UniProt P53779); test: Dose response biochemical screening assay for inhibitors of c-Jun N-Terminal Kinase 3 (JNK3). [Related pubchem assays: 746 ]
Mitogen-activated protein kinase 10, sequence (P53779 whole entry): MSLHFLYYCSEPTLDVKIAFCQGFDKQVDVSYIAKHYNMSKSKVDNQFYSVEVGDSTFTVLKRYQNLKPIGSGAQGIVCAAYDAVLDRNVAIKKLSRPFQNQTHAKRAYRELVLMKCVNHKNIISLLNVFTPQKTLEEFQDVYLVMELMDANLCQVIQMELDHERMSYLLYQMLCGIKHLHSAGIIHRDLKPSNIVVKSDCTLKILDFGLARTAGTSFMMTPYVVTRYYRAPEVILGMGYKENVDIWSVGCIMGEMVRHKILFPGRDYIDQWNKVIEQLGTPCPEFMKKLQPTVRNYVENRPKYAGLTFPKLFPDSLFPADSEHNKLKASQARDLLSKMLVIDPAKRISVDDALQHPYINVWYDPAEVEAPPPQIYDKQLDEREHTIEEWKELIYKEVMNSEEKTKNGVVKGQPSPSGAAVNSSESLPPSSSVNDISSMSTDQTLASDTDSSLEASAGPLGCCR

[18] = toxicity to human HepG2 hepatoma cells – cell-based, plate reader, dry powder samples, cytotoxicity control, dose response (AID 1159569); assay type: functional;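 note: inhibitor potency with signal falling toward the positive control level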
[19] = toxicity to human hepatoma HepG2 cells – cell-based, cherry-picked samples, cytotoxicity control, dose response (AID 1159577); assay type: functional

SMILES: CC12CCC(C(=O)Nc3cc(F)ccc3F)(CC1=O)C2(C)C (stereo unspecified)
- CC50 [1]: > 40 µM (active)

SMILES: COc1ccc(NC(=O)N2C[C@@H]3N[C@H](C2)[C@@H]3c2ccc(-c3ccc(OC)cc3)cc2)cc1
- AC50 (Paired box protein Pax-8): 13.7 µM (active)
- AC50 [2]: 23.3 µM (active)
- AC50 [3]: 46.6 µM (active)
- AC50 [4]: 32.5 µM (active)
- AC50 [5]: 48.5 µM (active)
- AC50 [6]: 26.6 µM (active)

SMILES: C[C@@H]1CN([C@@H](C)CO)C(=O)c2cc(NC(=O)Nc3ccc(F)cc3)ccc2O[C@@H](C)CCCCO[C@@H]1CN(C)Cc1ccc(C(F)(F)F)cc1
- AC50 (Paired box protein Pax-8): 9.46 µM (active)
- AC50 [3]: 33.6 µM (active)
- AC50 [5]: 39.9 µM (active)
- AC50 [7]: 0.363 µM (active)

SMILES: CCCNC(=O)N1[C@H](C#N)[C@H](c2ccc(C#Cc3cccc(F)c3)cc2)[C@H]1CO
- AC50 [8]: 0.0243 µM (active)
- AC50 [9]: 0.00678 µM (active)
- AC50 [10]: 0.00951 µM (active)
- AC50 [11]: < 0.3 µM (active)
- AC50 [12]: 0.00355 µM (active)
- AC50 [13]: 8.92 µM (active)

SMILES: O=C(NC1=C(c2ccc(OC(F)(F)F)cc2)C(=O)c2ccccc2C1=O)c1ccc(Br)cc1
- AC50 [14]: 36.5 µM (active)
- AC50 [15]: 41.1 µM (active)

- EC50 [16]: 10 µM (inconclusive)
SMILES: CS(=O)(=O)N(CC(=O)NC1CCCCC1)c1cc(C(F)(F)F)ccc1Cl

- EC50 [16]: > 30 µM (inactive)
SMILES: CC(C(=O)Nc1ccc(Cl)cn1)N(c1ccccc1Cl)S(C)(=O)=O (stereo unspecified)

- IC50 [17]: 40.7 µM (not active)
SMILES: O=C(c1cccc2c1-c1ccccc1/C2=N/O)N1CCCCC1

SMILES: COc1ccc(-c2ccc([C@H]3[C@@H](C#N)N(C(=O)NC4CCCC4)[C@@H]3CO)cc2)cc1
- AC50 [18]: 81.4 µM (active)
- AC50 [19]: > 39 µM (inactive)
- AC50 [8]: 0.208 µM (active)
- AC50 [9]: 0.248 µM (active)
- AC50 [11]: < 0.3 µM (active)
- AC50 [12]: 0.23 µM (active)
- AC50 [13]: 5.29 µM (active)

SMILES: CC(=O)NC1=C(c2cccc(Cl)c2)C(=O)c2ccccc2C1=O
- AC50 [14]: 7.22 µM (active)
- AC50 [15]: 14.4 µM (active)
